Test results as given in patent publication US20110166196A1, “TREATMENT AND PROPHYLAXIS OF EPILEPSY AND FEBRILE SEIZURES” (priority 2008, published 2011).

Legend:
[1] = system: excitatory synapses onto CA1 hippocampal interneurons; test: HFS-induced long-term depression (LTD) of EPSCs, whole-cell recording in hippocampal slices; assay type: cell-based, rat
Description: (§1) The basic methods have been detailed previously (McMahon and Kauer, 1997). Sprague-Dawley rats (15-22 days old) were used in the majority of experiments. In addition, we used TRPV1^−/− mice (Caterina et al., 2000) and wild-type C57BL/6 mice aged between 15 and 21 days (Jackson Laboratory). The TRPV1^−/− mice we used have been backcrossed at least 10 times onto a C57BL/6 background and were obtained from homozygous breeding pairs. Control mice were therefore not littermates but were age-matched, wild-type C57BL/6 animals received from the same supplier in the same shipment. All animal protocols were approved by the Brown University Institutional Animal Care and Use Committee. For mouse experiments, only one brain slice per mouse was used for each experiment, so that reported ‘n’ numbers represent the number of animals. Animals were anaesthetized using halothane or isoflurane and quickly decapitated. The brain was rapidly removed and 300 μm thick coronal slices prepared and stored for at least one hour submerged on a net in artificial cerebrospinal fluid (ACSF) containing in mM: 119 NaCl, 26 NaHCO3, 2.5 KCl, 1.0 NaH2PO4, 2.5 CaCl2, 1.3 MgSO4 and 11 dextrose, saturated with 95% O2/5% CO2 (pH 7.4). Slices were then transferred to a submerged recording chamber and bathed in oxygenated ACSF (28-32° C.) containing elevated divalent cations to reduce epileptiform activity (4 mM CaCl2 and 4 mM MgCl2, replacing MgSO4). A surgical cut was made between the CA3 and CA1 regions. The storage of slices submerged on a net rather than in an interface chamber on filter paper may be important in maintaining slice health and improving the likelihood of observing LTD.
(§2) Slices were continuously perfused with ACSF warmed to 28-32° C. at a flow rate of 1-2 ml/min. Picrotoxin (100 μM) and D-AP5 (50 μM) were added to block GABAA receptor- and NMDAR-mediated synaptic transmission. Whole-cell patch clamp recordings were made from interneurons identified visually in the CA1 stratum radiatum of the hippocampus. […] Patch pipettes were filled with internal recording solution containing in mM: 117 cesium gluconate, 2.8 NaCl, 5 MgCl2, 20 HEPES, 2 ATP-Na^+, 0.3 GTP-Na^+ and 0.6 EGTA. In some experiments 2 μM capsazepine, 140 nM baicalein, or 250 μM GDPβS were also included in the intracellular patch pipette solution. In experiments with BAPTA-containing patch electrodes, EGTA was omitted from the intracellular solution and 25 or 40 mM BAPTA replaced a corresponding amount of cesium gluconate. EPSCs were stimulated at 0.1 Hz (100 μsec) using a bipolar stainless steel stimulating electrode placed in stratum radiatum at least 200 μm from the recorded cell. CA1 interneurons were voltage clamped at −65 mV (not corrected for the liquid junction potential, of ˜10 mV), and EPSCs were evoked by paired pulses with an interval of 50 msec (stimulus intensity typically 50-400 μA). In early experiments, we measured rectification ratios of EPSCs evoked at +40 mV/−60 mV in the presence of 50 μM D-AP5, measured at the time of peak inward synaptic current seen at −70 mV (Lei and McBain, 2004).
High-frequency stimulation was used to induce LTD (HFS; two 1 sec trains at 100 Hz, inter-train interval 20 sec, at 1.5 times test current intensity) with the neuron held in current-clamp mode, so that the HFS trains were delivered with the membrane potential free to vary. Receptor antagonists were added directly to the ACSF at known concentrations for at least 10 minutes prior to HFS. Control experiments were interleaved with those experiments using receptor antagonists or involving slices from TRPVl^−/− mice. The cell input resistance and series resistance were monitored throughout each experiment; cells were discarded if these values changed by more than 10% during the experiment.

[2] = system: excitatory synapses onto CA1 hippocampal interneurons; test: Drug-induced depression of EPSC amplitudes, whole-cell recording in hippocampal slices; assay type: cell-based, rat
Description: as §1, §2
The maximal initial slope of fEPSPs was calculated using a LabVIEW-based program (National Instruments). The peak amplitude of each EPSC was measured by comparing a 10 msec time period immediately prior to the stimulus with the peak of the EPSC using this program as well. Occasionally polysynaptic responses were evoked, and in these cases, only the initial monosynaptic event was measured. To positively identify LTD, EPSCs measured every 10 seconds were averaged in 1 minute intervals. EPSC amplitude values were normalized to control pre-HFS EPSC amplitude values (baseline period of at least 5 minutes prior to HFS) and subjected to analysis of variance (ANOVA) repeated measures analysis with a post-hoc Dunnett's test (GraphPad Prism, Version 4).

hippocampal area CA1 = settings: in vivo treatment of animals after the induction of febrile seizures; cited from earlier work

C=C(C)[C@]12C[C@@H](C)[C@@]34O[C@](Cc5ccccc5)(O[C@@H]1[C@@H]3C=C(COC(=O)Cc1cc(I)c(O)c(OC)c1)C[C@]1(O)C(=O)C(C)=C[C@@H]41)O2 [5′-Iodoresiniferatoxin]
EPSC amplitudes 15-20 minutes post-HFS in 5′-Iodoresiniferatoxin ([1]; 5′-Iodoresiniferatoxin 100 nM bath applied prior to HFS, n=7): 96.2±13.6 % of control values before HFS

Cc1c(C(=O)NN2CCCCC2)nn(-c2ccc(Cl)cc2Cl)c1-c1ccc(I)cc1 [AM251]
EPSC amplitudes 15-20 minutes post-HFS ([1]; AM251 2 μM bath-applied, n=8): 48.6±5.3 % of control values before HFS
EPSC amplitudes after 10-15 minutes in both WIN 55,212-2 and AM251 ([2]; AM251 2 μM applied before WIN 55,212-2 1 μM, n=5): 101.7±8.9 % of pre-WIN 55,212-2 control values

Cc1c(C(=O)c2cccc3ccccc23)c2cccc3c2n1[C@H](CN1CCOCC1)CO3 [WIN 55,212-2]
EPSC amplitudes 15-20 minutes post-HFS ([1]; pre-treatment with WIN 55,212-2 1 μM for at least ten minutes, n=12): 51.3±7.5 % of control values in WIN55,212-2 before HFS
EPSC amplitudes after 10-15 minutes in WIN 55,212-2 alone ([2]; WIN 55,212-2 1 μM bath-applied, n=14): 66.1±7.9 % of pre-drug control values

Nc1nc2c(ncn2[C@@H]2O[C@H](COP(=O)(O)OP(O)(O)=S)[C@@H](O)[C@H]2O)c(=O)[nH]1 [GDPβS]
cells recorded from with intracellular GDPβS that had LTD ([1]; patch pipette solution containing 250 μM GDPβS): 6 of 10
EPSC amplitudes 15-20 minutes post-HFS with intracellular GDPβS ([1]; patch pipette solution containing 250 μM GDPβS, n=10): 88.2±10.6 % of control values before HFS

Cc1c(C(=O)NN2CCCCC2)nn(-c2ccc(Cl)cc2Cl)c1-c1ccc(Cl)cc1 [SR141716A]
EPSC amplitudes 15-20 minutes post-HFS ([1]; SR141716A 2-5 μM bath-applied, n=10, control LTD 62.0±5.3%): 110.6±19.3 % of control values before HFS
EPSC amplitudes after 10-15 minutes in capsaicin and in the presence of SR141716A ([2]; SR141716A 2 μM pretreatment, capsaicin 1 μM, n=6): 102.8±9.2 % of pre-capsaicin control values
EPSC amplitudes after 10-15 minutes in 12-(S)-HPETE and in the presence of SR141716A ([2]; SR141716A 2 μM, 12-(S)-HPETE 100 nM, n=5): 106.9±5.5 % of pre-12-(S)-HPETE control values
emergence of long-term limbic hyperexcitability (hippocampal area CA1): prevented the emergence of long-term limbic hyperexcitability
hyperexcitability in hippocampal area CA1 (hippocampal area CA1): reduced hyperexcitability in hippocampal area CA1
